“And” between values parts separate entries of the source, which are not always exact repeats. Equal entries are not always repeated.
Assays:
[1] = target: 5-hydroxytryptamine receptor 1B (Homo sapiens, UniProt P28222)
[2] = target: 5-hydroxytryptamine receptor 2B (Homo sapiens, UniProt P41595)
[3] = target: 5-hydroxytryptamine receptor 7 (Homo sapiens, UniProt P34969)
[4] = target: T1, 5-hydroxytryptamine receptor 1A (Homo sapiens, UniProt P08908)
T1 sequence (P08908 whole entry): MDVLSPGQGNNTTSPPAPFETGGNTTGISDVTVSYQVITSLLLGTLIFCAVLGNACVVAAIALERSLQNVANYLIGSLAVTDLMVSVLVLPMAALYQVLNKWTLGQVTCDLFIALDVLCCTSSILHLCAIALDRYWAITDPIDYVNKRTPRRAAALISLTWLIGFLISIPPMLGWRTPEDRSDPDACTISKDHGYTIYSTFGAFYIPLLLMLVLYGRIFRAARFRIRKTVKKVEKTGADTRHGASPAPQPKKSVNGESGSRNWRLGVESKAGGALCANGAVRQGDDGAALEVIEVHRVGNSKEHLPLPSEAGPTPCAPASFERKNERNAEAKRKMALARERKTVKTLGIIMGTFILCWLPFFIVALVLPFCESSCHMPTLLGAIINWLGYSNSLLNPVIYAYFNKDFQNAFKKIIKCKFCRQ

[5] = target: 5-hydroxytryptamine receptor 2A (Homo sapiens, UniProt P28223)
Sequence of 5-hydroxytryptamine receptor 2A (P28223 whole entry): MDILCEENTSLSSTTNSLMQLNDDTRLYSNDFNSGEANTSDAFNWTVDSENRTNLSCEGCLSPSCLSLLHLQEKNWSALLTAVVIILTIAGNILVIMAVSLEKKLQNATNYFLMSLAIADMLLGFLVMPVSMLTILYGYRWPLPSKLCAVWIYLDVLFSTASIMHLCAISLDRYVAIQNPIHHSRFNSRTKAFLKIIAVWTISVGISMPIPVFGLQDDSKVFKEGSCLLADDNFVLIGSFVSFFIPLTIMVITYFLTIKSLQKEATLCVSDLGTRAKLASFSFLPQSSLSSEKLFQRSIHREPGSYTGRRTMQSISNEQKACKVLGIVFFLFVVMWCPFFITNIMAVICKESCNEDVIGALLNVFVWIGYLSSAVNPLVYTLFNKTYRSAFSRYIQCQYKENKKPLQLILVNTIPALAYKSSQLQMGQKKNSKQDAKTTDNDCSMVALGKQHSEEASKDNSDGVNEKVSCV

[6] = target: 5-hydroxytryptamine receptor 1D (Homo sapiens, UniProt P28221)
Sequence of 5-hydroxytryptamine receptor 1D (P28221 whole entry): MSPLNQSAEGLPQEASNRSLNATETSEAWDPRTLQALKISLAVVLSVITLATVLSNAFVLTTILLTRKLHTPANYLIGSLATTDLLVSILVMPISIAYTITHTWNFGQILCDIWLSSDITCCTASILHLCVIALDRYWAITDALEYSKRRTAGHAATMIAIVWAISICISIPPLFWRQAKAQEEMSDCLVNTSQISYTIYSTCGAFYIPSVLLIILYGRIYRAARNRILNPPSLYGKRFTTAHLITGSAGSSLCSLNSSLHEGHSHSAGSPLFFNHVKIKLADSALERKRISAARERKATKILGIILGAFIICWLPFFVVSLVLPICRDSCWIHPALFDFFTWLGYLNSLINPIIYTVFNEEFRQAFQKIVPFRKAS

[7] = target: 5-hydroxytryptamine receptor 1E (Homo sapiens, UniProt P28566)
Sequence of 5-hydroxytryptamine receptor 1E (P28566 whole entry): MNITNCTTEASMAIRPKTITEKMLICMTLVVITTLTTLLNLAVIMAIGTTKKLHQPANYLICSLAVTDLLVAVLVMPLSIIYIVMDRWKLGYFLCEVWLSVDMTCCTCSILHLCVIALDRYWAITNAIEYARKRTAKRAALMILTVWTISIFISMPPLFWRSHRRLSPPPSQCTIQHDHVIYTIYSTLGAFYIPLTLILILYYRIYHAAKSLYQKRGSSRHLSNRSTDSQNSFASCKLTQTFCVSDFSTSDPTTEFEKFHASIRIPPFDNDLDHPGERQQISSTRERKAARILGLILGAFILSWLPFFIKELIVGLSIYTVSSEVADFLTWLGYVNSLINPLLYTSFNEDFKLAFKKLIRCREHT

[8] = target: T2, 5-hydroxytryptamine receptor 1F (Homo sapiens, UniProt P30939)
T2 sequence (P30939 whole entry): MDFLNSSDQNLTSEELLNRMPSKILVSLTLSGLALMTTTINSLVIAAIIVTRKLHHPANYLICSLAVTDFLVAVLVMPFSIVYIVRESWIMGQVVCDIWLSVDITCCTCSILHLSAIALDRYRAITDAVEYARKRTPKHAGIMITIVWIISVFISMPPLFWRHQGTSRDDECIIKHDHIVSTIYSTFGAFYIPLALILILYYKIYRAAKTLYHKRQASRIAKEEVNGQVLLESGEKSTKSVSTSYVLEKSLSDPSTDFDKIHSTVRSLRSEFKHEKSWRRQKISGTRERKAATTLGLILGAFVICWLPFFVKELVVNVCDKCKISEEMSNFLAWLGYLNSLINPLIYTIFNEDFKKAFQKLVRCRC

[9] = target: T3, 5-hydroxytryptamine receptor 2C (Homo sapiens, UniProt P28335)
T3 sequence (P28335 whole entry): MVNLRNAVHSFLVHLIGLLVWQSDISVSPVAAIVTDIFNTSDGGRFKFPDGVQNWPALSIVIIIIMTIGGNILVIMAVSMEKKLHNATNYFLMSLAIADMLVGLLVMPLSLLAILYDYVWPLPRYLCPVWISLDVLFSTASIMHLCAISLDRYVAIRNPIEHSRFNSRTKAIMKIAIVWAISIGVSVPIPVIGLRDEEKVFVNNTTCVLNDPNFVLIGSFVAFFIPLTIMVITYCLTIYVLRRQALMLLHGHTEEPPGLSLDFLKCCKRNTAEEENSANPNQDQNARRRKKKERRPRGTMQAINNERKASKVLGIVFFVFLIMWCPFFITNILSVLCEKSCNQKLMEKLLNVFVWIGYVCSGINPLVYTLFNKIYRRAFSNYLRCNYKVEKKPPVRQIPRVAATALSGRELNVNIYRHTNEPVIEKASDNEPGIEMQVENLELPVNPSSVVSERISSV

[10] = target: 5-hydroxytryptamine receptor 6 (Homo sapiens, UniProt P50406)
Sequence of 5-hydroxytryptamine receptor 6 (P50406 whole entry): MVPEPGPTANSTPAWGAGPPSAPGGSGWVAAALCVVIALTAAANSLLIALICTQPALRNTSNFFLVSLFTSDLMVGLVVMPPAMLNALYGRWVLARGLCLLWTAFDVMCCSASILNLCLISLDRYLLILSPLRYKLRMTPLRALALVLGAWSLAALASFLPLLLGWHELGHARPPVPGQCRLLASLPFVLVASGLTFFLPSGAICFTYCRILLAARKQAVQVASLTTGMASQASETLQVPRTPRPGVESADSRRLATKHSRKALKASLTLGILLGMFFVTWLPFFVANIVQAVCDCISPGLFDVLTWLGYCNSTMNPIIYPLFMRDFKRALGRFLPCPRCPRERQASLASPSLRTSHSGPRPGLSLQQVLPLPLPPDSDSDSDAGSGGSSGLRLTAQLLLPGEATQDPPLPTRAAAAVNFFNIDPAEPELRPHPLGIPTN

Sequence of 5-hydroxytryptamine receptor 7 (P34969 whole entry): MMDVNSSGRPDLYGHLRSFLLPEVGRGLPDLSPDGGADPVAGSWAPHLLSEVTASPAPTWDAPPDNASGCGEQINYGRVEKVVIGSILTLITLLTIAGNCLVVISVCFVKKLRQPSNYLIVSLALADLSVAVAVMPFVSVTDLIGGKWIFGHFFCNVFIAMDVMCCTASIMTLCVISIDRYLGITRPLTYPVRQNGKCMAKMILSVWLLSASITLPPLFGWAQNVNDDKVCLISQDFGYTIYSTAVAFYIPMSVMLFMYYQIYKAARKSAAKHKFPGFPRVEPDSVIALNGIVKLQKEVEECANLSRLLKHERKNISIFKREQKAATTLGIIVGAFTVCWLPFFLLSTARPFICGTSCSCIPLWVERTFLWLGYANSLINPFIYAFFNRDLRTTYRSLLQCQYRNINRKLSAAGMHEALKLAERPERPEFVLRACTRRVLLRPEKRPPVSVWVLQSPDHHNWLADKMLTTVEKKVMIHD
Sequence of 5-hydroxytryptamine receptor 2B (P41595 whole entry): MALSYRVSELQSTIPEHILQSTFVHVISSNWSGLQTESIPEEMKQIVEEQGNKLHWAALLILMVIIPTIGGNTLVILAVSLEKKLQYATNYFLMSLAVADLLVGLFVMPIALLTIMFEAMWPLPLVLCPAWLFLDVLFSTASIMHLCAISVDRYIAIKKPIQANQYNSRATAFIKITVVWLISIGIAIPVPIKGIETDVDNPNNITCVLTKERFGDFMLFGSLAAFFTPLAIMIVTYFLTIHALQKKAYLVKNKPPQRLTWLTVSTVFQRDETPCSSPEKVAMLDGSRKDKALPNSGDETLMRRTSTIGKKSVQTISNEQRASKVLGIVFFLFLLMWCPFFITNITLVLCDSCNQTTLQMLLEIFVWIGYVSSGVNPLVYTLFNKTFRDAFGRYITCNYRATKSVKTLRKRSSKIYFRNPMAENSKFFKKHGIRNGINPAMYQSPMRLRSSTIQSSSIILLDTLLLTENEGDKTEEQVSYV
Sequence of 5-hydroxytryptamine receptor 1B (P28222 whole entry): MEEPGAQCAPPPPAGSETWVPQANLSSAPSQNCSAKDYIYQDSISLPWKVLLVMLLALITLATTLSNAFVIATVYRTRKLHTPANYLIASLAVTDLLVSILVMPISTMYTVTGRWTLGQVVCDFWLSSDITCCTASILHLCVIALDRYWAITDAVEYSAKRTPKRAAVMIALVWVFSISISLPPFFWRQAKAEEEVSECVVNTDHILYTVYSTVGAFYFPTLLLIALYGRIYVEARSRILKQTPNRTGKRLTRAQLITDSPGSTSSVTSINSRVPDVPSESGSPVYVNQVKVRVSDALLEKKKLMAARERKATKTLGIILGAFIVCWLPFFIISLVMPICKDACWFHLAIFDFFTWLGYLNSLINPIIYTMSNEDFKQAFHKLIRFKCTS

Ki [1]	Ki [2] [nM]	Ki [3] [nM]	Ki [5] [nM]	Ki [7] [nM]	Ki [8] [nM]	Ki [9] [nM]	Ki [10] [nM]	SMILES	Ki [4] [nM]	Ki [6]
794 nM and 1260 nM	39.8	501	251	6310	1000	631	1260	OC(CN1CCN(c2cccc(Cl)c2)CC1)C(c1ccccc1)c1ccccc1 (stereo not drawn)		12.6 nM and 7.94 nM
1 nM and 7.94 nM	631	631	15.8	3980	398	100	1580	COc1ccc(NC(=O)c2ccc(-c3ccc(-c4noc(C)n4)cc3C)cc2)cc1N1CCN(C)CC1 [SMR001230745]	63.1	

SMILES	Ki [1]	Ki [2] [nM]	Ki [3] [nM]	Ki [5] [nM]	Ki [7] [nM]	Ki [8] [nM]	Ki [9] [nM]	Ki [10] [nM]	Ki [4] [nM]	Ki [6]
COc1ccc(NC(=O)c2ccc(-c3ccc(-c4noc(C)n4)cc3C)cc2)cc1OCCN(C)C [CAS_3292447]	1 nM and 7.94 nM	1580	> 10000	50.1	1000	1000	158	3160	501	25.1 nM and 12.6 nM

Source: BindingDB's records for doi:10.1007/pl00005056 (Smithkline Beecham Pharmaceuticals, 1997)
